US20250230226A1, “PLXDC1/PLXDC2 ACTIVATORS AND THEIR USE IN THE TREATMENT OF BLOOD VESSEL DISORDERS” (THE REGENTS OF THE UNIVERSITY OF CALIFORNIA, priority 2019, published 2025)

What was measured:
[1] = system: CT26.CL25 colon cancer tumor endothelial cells; test: Colon CT26 ex vivo model of tumor angiogenesis; type: cell-based, mouse
Method: An ex vivo tumor angiogenesis model was developed to test the efficacy of anti-cancer candidate agents. The following protocol describes the Ex Vivo Tumor Angiogenesis Model.
• 1. The day before the experiment, all necessary tools were sprayed with 70% ethanol and sterilized under UV light overnight, including blade, dissecting and micro-dissecting scissors and […]. 24-well dishes were placed at 4° C. to pre-chill plates and Matrigel was thawed, 24 hours before tumor dissection. • 2. 70% ethanol was sprayed on working bench. Two sterile petri dishes were prepared with 10 ml sterile PBS. The following steps 3 and 4 are necessary for mouse tumor models. For fresh human tumor, steps 3 and 4 are skipped. • 3. The tumor-bearing mice were euthanized. 70% ethanol was sprayed on the mouse and the tumor was removed using sterilized dissecting tools (avoid the fur). The tumor was rinsed in petri dish with sterile PBS to remove ethanol and fur. The tumor was transferred to a new petri dish with PBS for dissection. The dish is placed on ice. • 4. Pre-chilled sterile pipet tips were used to seed regular Matrigel in 24 well plates on ice. Matrigel (30 μl) was dropped in the middle of each well without touching the edge of the well (avoid introducing bubbles if possible). • 5. The tumor was cut in halves using the sterile blade. Healthy tumor tissue that is not necrotic and is within the tumor capsule was identified and isolated. The healthy tumor tissue was cut into small pieces. For instance, a suitable size for the tumor tissue is 0.5 mm (H)×0.5 mm (L)×0.3 mm (D) with a total volume of 0.075 mm^3. • 6. Each tumor piece was gently transferred and embedded in the Matrigel drop in the 24-well plate. The embedded piece was placed in the bottom and middle of each Matrigel drop. The plate was kept on ice all the time. • 7. After seeding the tumor pieces, plates were incubated in a 37° C. cell culture incubator without medium for 10 minutes in order for the Matrigel to solidify. • 8. Endothelial Growth Medium (0.5 ml) was added to each well and incubated at 37° C. with 5% CO2. Treatment was not added until the new endothelial cells was grown out of the tumor or were larger than 3 mm in diameter. This usually takes 4 days for the LL2 Lewis lung cancer model and 7 days for the CT26 colon cancer model. For human tumor models, the growth time is typically 2-3 weeks, depending on the tumor type. Media was changed every 4 days during prolonged culture. Typically, when the tumor tissue grows to 2 mm in diameter, it was good for drug testing. A size of about 3 mm in diameter can make visualization easier. • 9. When the assay was ready to be analyzed for cell death (e.g., 48 hours after drug addition), the dye mixture was prepared by mixing 6 μl of green dye to stain live cells (5 mg/ml Fluorescein diacetate or FDA in DMSO) with 30 μl of red dye (2.5 mg/ml Propidium iodide or PI in PBS) to stain dead cells in an Eppendorf tube. The FDA dye needs to be stored frozen in a −20° C. freezer because it has a labile ester bond. • 10. 1 μl of the dye mixture was added to each well of the 24-well dish. It is usually preferred to do one 24-well dish at a time given the amount of time needed to take pictures (the green dye is not as stable in the cells in the long term). • 11. The dish was gently rocked a few times to mix the dye with the media in the wells and incubate the dish at 37° C. for 10 min (too long incubation can make the green signal too intense). • 12. Each well was washed with 0.5 ml of sterile PBS and then 0.5 ml of phenol red free SFM was added to each well. Alternatively 0.5 ml of regular Endothelial Cell Growth Media can be added to each well if this well needs to be continuously maintained after the experiment. • 13. An inverted microscope using the 2× objective lens was used to observe morphological changes in the experimental wells. • 14. […]

[2] = system: LL/2 lung cancer tumor endothelial cells; test: Lung LL2 ex vivo model of tumor angiogenesis; type: cell-based, mouse; details: for 48 hrs (morphology observations): LL/2 tumor endothelial cells; for Cell death: drug treatment for two days, ratio of red area to total endothelial cell area; for cytotoxicity at 40 µM: Mus musculus, Endothelial cell, 48 h, read-out: Cell death
In short: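 LL2 mouse tumor fragments (~0.075 mm³) embedded in Matrigel and cultured in endothelial growth medium at 37 °C until endothelial outgrowth (~4 days) before treatment. Cell death assessed e.g. 48 h after drug by fluorescein diacetate (live)/propidium iodide (dead) staining and red/green fluorescence imaging.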

[3] = Mus musculus, Endothelial cell, 48 h, read-out: Cell death

Compound	48 hrs (morphology observations after 48 hours) ([1]; Conc. 40 μm)	cytotoxicity at 40 µM [1, 3] [%]	48 hrs (morphology observations) ([2]; 40 μm)	Cell death ([2]; 40 μm) [%]	cytotoxicity at 40 µM [2] [%]	48 hrs (morphology observations after 48 hours) ([1]; Conc. 10 μm)	cytotoxicity at 10 µM [1, 3] [%]	Cell death ([2]; 20 μm) [%]
CCc1ccc(S(=O)(=O)c2cnc3ccc(OC(F)(F)F)cc3c2-n2cncn2)cc1 [Compound 51]	*** (100% of endothelial cells vesicularize in cell shape)	20	**** (100% of endothelial cells vesicularize in cell shape and look flattened in morphology (indicating disintegration of the cell body))	100	–	–	–	–
CCc1ccc(S(=O)(=O)c2cnc3ccc(OC(F)(F)F)cc3c2N2CCC3(CC2)OCCO3)cc1 [Compound 52]	0	0	–	50	–	–	–	–
N#Cc1ccc(S(=O)(=O)c2cnc3ccc(OC(F)(F)F)cc3c2N2CCC(N3CCCCC3)CC2)cc1 [Compound 54]	0	10	–	50	–	–	–	–
CCc1ccc(S(=O)(=O)c2cnc3ccc(CC#N)cc3c2N2CCC(N3CCCCC3)CC2)cc1 [Compound 55]	0	50	–	70	–	–	–	–
COc1ccc(S(=O)(=O)c2cnc3ccc(OC(F)(F)F)cc3c2N2CCC(N3CCCCC3)CC2)cc1OC [Compound 56]	0	30	* (50% or less of cells vesicularize in cell shape)	20	–	–	–	–
COc1ccc(S(=O)(=O)c2cnc3ccc(OC(F)(F)F)cc3c2N2CCCN(C)CC2)cc1OC [Compound 57]	* (50% or less of cells vesicularize in cell shape)	60	0	40	–	–	–	–
COc1ccc(S(=O)(=O)c2cnc3ccc(OC(F)(F)F)cc3c2N2CCC(O)CC2)cc1OC [Compound 58]	* (50% or less of cells vesicularize in cell shape)	50	0	–	50	–	–	–
O=[N+]([O-])c1ccc(S(=O)(=O)c2cnc3ccc(OC(F)(F)F)cc3c2N2CCC(N3CCCCC3)CC2)cc1 [Compound 59]	0	50	–	40	–	–	–	–
O=[N+]([O-])c1ccc(S(=O)(=O)c2cnc3ccc(OC(F)(F)F)cc3c2N2CCC(O)CC2)cc1 [Compound 61]	0	20	–	50	–	–	–	–
CCOC(=O)c1ccc2ncc(S(=O)(=O)c3ccc(CC)cc3)c(N3CCC(O)CC3)c2c1 [Compound 62]	** (more than 50% but less than 100% of endothelial cells vesicularize in cell shape)	70	*** (more than 50% but less than 100% of endothelial cells vesicularize in cell shape)	30	–	–	–	–
CCOC(=O)c1ccc2ncc(S(=O)(=O)c3ccc(CC)cc3)c(N3CCCN(C)CC3)c2c1 [Compound 63]	*** (100% of endothelial cells vesicularize in cell shape)	70	–	50	–	–	–	–
CCOC(=O)c1ccc2ncc(S(=O)(=O)c3ccc(CC)cc3)c(N3CCC(N4CCCCC4)CC3)c2c1 [Compound 64]	*** (100% of endothelial cells vesicularize in cell shape)	100	*** (more than 50% but less than 100% of endothelial cells vesicularize in cell shape)	–	100	–	–	–
CCc1ccc(S(=O)(=O)c2cnc3ccc(C(=O)O)cc3c2N2CCC(O)CC2)cc1 [Compound 65]	0	0	–	10	–	–	–	–
CCc1ccc(S(=O)(=O)c2cnc3ccc(C(=O)O)cc3c2N2CCCN(C)CC2)cc1 [Compound 66]	0	0	–	10	–	–	–	–
CCc1ccc(S(=O)(=O)c2cnc3ccc(C(=O)O)cc3c2N2CCC(N3CCCCC3)CC2)cc1 [Compound 67]	0	0	–	10	–	–	–	–
CCN(CC)c1c(S(=O)(=O)c2ccc(OC)c(OC)c2)cnc2ccc(OC(F)(F)F)cc12 [Compound 68]	** (more than 50% but less than 100% of endothelial cells vesicularize in cell shape)	50	*** (more than 50% but less than 100% of endothelial cells vesicularize in cell shape)	80	–	–	–	–
COc1ccc(S(=O)(=O)c2cnc3ccc(OC(F)(F)F)cc3c2NCCO)cc1OC [Compound 69]	0	0	0	–	20	–	–	–
COc1ccc(S(=O)(=O)c2cnc3ccc(OC(F)(F)F)cc3c2N2CCCC(O)C2)cc1OC (stereo not drawn) [Compound 70]	0	10	*** (more than 50% but less than 100% of endothelial cells vesicularize in cell shape)	40	–	–	–	–
CCCN(CCC)c1c(S(=O)(=O)c2ccc(OC)c(OC)c2)cnc2ccc(OC(F)(F)F)cc12 [Compound 71]	0	0	* (50% or less of cells vesicularize in cell shape)	10	–	–	–	–
COc1ccc(S(=O)(=O)c2cnc3ccc(OC(F)(F)F)cc3c2N(CCO)CCO)cc1OC [Compound 72]	0	0	–	20	–	–	–	–
CCCCN(CCCC)c1c(S(=O)(=O)c2ccc(OC)c(OC)c2)cnc2ccc(OC(F)(F)F)cc12 [Compound 74]	*** (100% of endothelial cells vesicularize in cell shape)	100	*** (more than 50% but less than 100% of endothelial cells vesicularize in cell shape)	60	–	–	–	–
CCc1ccc(S(=O)(=O)c2cnc3ccc([N+](=O)[O-])cc3c2N2CCC(O)CC2)cc1 [Compound 75]	0	0	–	80	–	–	–	–
CCc1ccc(S(=O)(=O)c2cnc3ccc([N+](=O)[O-])cc3c2N2CCCN(C)CC2)cc1 [Compound 76]	** (more than 50% but less than 100% of endothelial cells vesicularize in cell shape)	100	0	20	–	–	–	–
CCc1ccc(S(=O)(=O)c2cnc3ccc([N+](=O)[O-])cc3c2N2CCC(N3CCCCC3)CC2)cc1 [Compound 77]	0	40	–	80	–	–	–	–
CCc1ccc(S(=O)(=O)c2cnc3ccc([N+](=O)[O-])cc3c2N(CC)CC)cc1 [Compound 78]	0	0	–	40	–	–	–	–
CCc1ccc(S(=O)(=O)c2cnc3ccc(OC)cc3c2-n2cncn2)cc1 [Compound 79]	–	–	–	–	–	*** (100% of endothelial cells vesicularize in cell shape)	100	20
